Here are results for seven molecules from patent US10450593B2, “Type II fatty acid synthesis enzymes in reverse β-oxidation” (William Marsh Rice University, priority 2014, dated 2019).

Like-named read-outs stand apart in the source and are kept apart here.

Data set [1] has as its target T1, FabI (Escherichia coli, UniProt P0AEK4).
T1 sequence (P0AEK4 1-262): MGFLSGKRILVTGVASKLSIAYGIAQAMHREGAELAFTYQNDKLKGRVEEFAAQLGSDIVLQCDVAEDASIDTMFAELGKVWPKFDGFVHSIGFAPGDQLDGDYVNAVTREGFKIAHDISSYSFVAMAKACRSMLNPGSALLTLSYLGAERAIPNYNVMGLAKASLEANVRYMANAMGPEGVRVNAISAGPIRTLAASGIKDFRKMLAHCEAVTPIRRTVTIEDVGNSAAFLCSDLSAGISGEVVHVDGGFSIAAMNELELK
The data set can be described thus: Inhibition of FabI crotonyl-CoA reduction activity by CoA thioesters. Type of data set: biochemical, E. coli. The following applies: for inhibitory effect on FabI activity: CoA thioester at 20 or 200 μM. The source says:
FIG. 3. Characterization of crotonyl-CoA reduction to butyryl-CoA by FabI. FIG. 3A. Mass spectrum analysis of FabI reduction of crotonyl-CoA to butyryl-CoA. (i) Controls of crotonyl-CoA (836.3 m/z—gray) and butyryl-CoA (838.3 m/z—black). (ii) Reaction mixture without FabI. (iii) Reaction mixture with FabI. FIG. 3B. pH activity profile of FabI with crotonyl-CoA and NADH relative to pH 7.5 (1.0). FIG. 3C. Inhibition profile of crotonyl-CoA reduction activity for FabI with the indicated CoA thioesters at either 20 or 200 μM relative to activity in absence of inhibitor (100%).
(§1) For measurement of enzymatic activities from fermentation samples, cells were disrupted as previously reported (Dellomonaco, Clomburg, Miller, & Gonzalez, 2011). The HIS Tagged FabI protein was expressed from pCA24N-FabI from the ASKA collection (Kitagawa et al., 2005) in BL21(DE3) cells (NEW ENGLAND BIOLABS™) induced at OD600≈0.4 with 0.1 mM IPTG and shaken O/N at Room Temperature. FabI protein was harvested and purified as previously reported using Talon Metal Affinity Resin (CLONTECH LABORATORIES™) (Clomburg et al., 2012).
(§2) Thiolase activity (Wiesenborn, Rudolph, & Papoutsakis, 1988) and β-hydroxybutyryl-CoA dehydrogenase activity (Bond-Watts, Bellerose, & Chang, 2011a) were monitored accordingly as previously described (Clomburg et al., 2012). Trans-enoyl-CoA reductase activity for egTER, FabI, bsFabL, efFabK and vcFabV were monitored by loss of NADH (Bond-Watts et al., 2011a; Clomburg et al., 2012). Acyl-CoA dehydrogenase activity was monitored by measuring the reduction of Methyl-Thiazolyl Blue (MTT) coupled to the oxidation of butyryl-CoA (O'Brien & Frerman, 1977) in cellular extracts disrupted as above with the addition of 5 μM flavin adenine dinucleotide (FAD).
To understand the potential of utilizing FabI for BOX-R, we examined the effect of key CoA thioester intermediates of the BOX-R as well as a broad range of acyl-CoAs on FabI activity […].

For data set [2], the target named is T1, FabI.
Data set [3] concerns the target T1, FabI. Particulars: substrate of FabI, Bergler 1994; cited from earlier work.
Substrate in data set [4]: C/C=C/C(=O)SCCNC(=O)CCNC(=O)[C@H](O)C(C)(C)COP(=O)(O)OP(=O)(O)OC[C@H]1O[C@@H](n2cnc3c(N)ncnc32)[C@H](O)[C@@H]1OP(=O)(O)O
The data set can be described thus: Kinetic parameters of purified N-terminal His-tagged FabI with crotonyl-CoA and NADH. Particulars: other: substrate of purified FabI, NADH. The class given is biochemical, E. coli. The method, then:
as §1, §2
N-terminal His-tagged FabI was purified from an ASKA collection vector (Kitagawa et al., 2005) expressed in the strain BL21(DE3). […] This change in kcat increases the expected rate of crotonyl-CoA reduction by FabI to a value between 1.02×10^−7M s^−1 and 7.86×10^−11 M s^−1, which is in agreement with the rate observed in our cultures. To verify that FabI is utilizing NADH to convert crotonyl-CoA to butyryl-CoA, the reaction was monitored via HPLC-MS, which confirmed that FabI converts crotonyl-CoA almost completely to butyryl-CoA (FIG. 3a).

For orientation: inhibition means the drop in the measured response relative to a control, in per cent. For orientation: Ki means a measure of affinity in units of concentration, obtained from inhibition or displacement. For the molecule `CCCCCCCCCCCCCCCC(=O)SCCNC(=O)CCNC(=O)[C@H](O)C(C)(C)COP(=O)(O)OP(=O)(O)OC[C@H]1O[C@@H](n2cnc3c(N)ncnc32)[C@H](O)[C@@H]1OP(=O)(O)O` [palmitoyl-CoA], the inhibition at 20 µM in data set [1] (read-out: inhibition of FabI crotonyl-CoA reduction activity) was roughly 50%. Besides, the Ki in data set [2] (read-out: Ki towards FabI; literature, Helmut Bergler 1996; cited from earlier work) is 20 µM.
For `CCCCCCCCCCCCCC(=O)SCCNC(=O)CCNC(=O)[C@H](O)C(C)(C)COP(=O)(O)OP(=O)(O)OC[C@H]1O[C@@H](n2cnc3c(N)ncnc32)[C@H](O)[C@@H]1OP(=O)(O)O` [myristoyl-CoA], the “percent inhibition of FabI crotonyl-CoA reduction activity” value in data set [1] (CoA thioester at 200 μM) is listed as “highest percent inhibition”.
`CC(O)CC(=O)SCCNC(=O)CCNC(=O)[C@H](O)C(C)(C)COP(=O)(O)OP(=O)(O)OC[C@H]1O[C@@H](n2cnc3c(N)ncnc32)[C@H](O)[C@@H]1OP(=O)(O)O` (stereo partly shown) [3-hydroxy-butyryl-CoA]: the “inhibitory effect on FabI activity” value in data set [1] is “minimal inhibitory effects”.
Consider `C/C=C/C(=O)SCCNC(=O)CCNC(=O)[C@H](O)C(C)(C)COP(=O)(O)OP(=O)(O)OC[C@H]1O[C@@H](n2cnc3c(N)ncnc32)[C@H](O)[C@@H]1OP(=O)(O)O` [crotonyl-CoA], for which, in data set [3], the reported kcat was 0.23 s⁻¹.
Consider `CCCCCCCCCC(=O)SCCNC(=O)CCNC(=O)C(O)C(C)(C)COP(=O)(O)OP(=O)(O)OC[C@H]1O[C@@H](n2cnc3c(N)ncnc32)[C@H](O)[C@@H]1OP(=O)(O)O` (stereo partly shown) [decaonyl-CoA], for which, in data set [2] (literature, Helmut Bergler 1996; read-out: Ki towards FabI; cited from earlier work), the Ki is roughly 900 µM.
`CC(=O)CC(=O)SCCNC(=O)CCNC(=O)[C@H](O)C(C)(C)COP(=O)(O)OP(=O)(O)OC[C@H]1O[C@@H](n2cnc3c(N)ncnc32)[C@H](O)[C@@H]1OP(=O)(O)O` [acetoacetyl-CoA]: the “inhibitory effect on FabI activity” value in data set [1] is “minimal inhibitory effects”.

B1: FabI (Escherichia coli K-12) (protein)
chain: MGFLSGKRILVTGVASKLSIAYGIAQAMHREGAELAFTYQNDKLKGRVEEFAAQLGSDIVLQCDVAEDASIDTMFAELGKVWPKFDGFVHSIGFAPGDQLDGDYVNAVTREGFKIAHDISSYSFVAMAKACRSMLNPGSALLTLSYLGAERAIPNYNVMGLAKASLEANVRYMANAMGPEGVRVNAISAGPIRTLAASGIKDFRKMLAHCEAVTPIRRTVTIEDVGNSAAFLCSDLSAGISGEVVHVDGGFSIAAMNELELK
The term Km denotes the concentration of substrate that gives half-maximal velocity. As usually defined, the kcat is the maximal rate divided by the concentration of active sites. As a reminder, the kcat/Km is the turnover number divided by the Michaelis constant. As for B1, in data set [4], the Km is 4.6 ± 0.6 mM, the catalytic constant (kcat) amounted to 5.3 ± 0.6 s⁻¹ and the specificity constant (kcat/Km) came out at 1150 M⁻¹ s⁻¹.
